# Earlier results, collected in US20150191797A1, “SYSTEMS AND METHODS FOR DIAGNOSING A PREDISPOSITION TO COLON CANCER” (Institute for Cancer Research d/b/a The Research Institute …, priority 2012, published 2015).
# Tested on: Werner cells
# Conditions: camptothecin doses of 20-50 nM
compound,measurement,value
"CC[C@@]1(O)C(=O)OCc2c1cc1n(c2=O)Cc2cc3ccccc3nc2-1 [Camptothecin, camptothecin]",effect on cell cycle,S phase delay
same,increase in apoptosis,5-6 fold
